Source: US9981928B2, “Aryl sulfide derivatives and aryl sulfoxide derivatives as acaricides and insecticides” (BAYER CROPSCIENCE AKTIENGESELLSCHAFT, priority 2013, dated 2018)
Like-named read-outs stand apart in the source and are kept apart here. Each block holds one compound with its values, some of them ahead of it.

What was measured:
[1] = test system: greenhouse red spider mite (Tetranychus urticae); assay: Tetranychus urticae spray test, OP-resistant (TETRUR), bean leaf disks; format: in vivo; details: bean leaf disks, after 6 days
Method: Tetranychus urticae—Spray Test, OP-Resistant (TETRUR)
Solvent: 78.0 parts by weight of acetone
• 1.5 parts by weight of dimethylformamide Emulsifier: alkylaryl polyglycol ether
To produce a suitable preparation of active compound, 1 part by weight of active compound is dissolved using the stated parts by weight of solvent and made up with water containing an emulsifier concentration of 1000 ppm until the desired concentration is attained. To produce further test concentrations, the preparation is diluted with emulsifier-containing water.
disks of bean leaves (Phaseolus vulgaris) infested with all stages of the greenhouse red spider mite (Tetranychus urticae) are sprayed with an active compound preparation of the desired concentration.
After 6 days, the efficacy in % is determined. 100% means that all the spider mites have been killed; 0% means that none of the spider mites have been killed.

[2] = log P determination by HPLC on reversed-phase columns (C 18), analogously to OECD Guideline 117; format: physicochemical; details: for logP (HCOOH): LC-MS in the acidic range, pH 2.7, 0.1% aqueous formic acid / acetonitrile; for logP (HCOOH) / logP (neutral): HPLC reversed-phase C 18; for logP (neutral): LC-MS in the neutral range, pH 7.8, 0.001 molar aqueous ammonium hydrogencarbonate / acetonitrile; for chromatographic logP: reversed-phase C18 HPLC column
Outline: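 Reversed-phase C18 HPLC per OECD 117 with LC-MS detection and a linear 10→95% acetonitrile gradient. Acidic log P run at pH 2.7 with 0.1% formic acid in both eluents. Neutral log P run at pH 7.8 with 0.001 M aqueous ammonium hydrogencarbonate.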

[3] = Tetranychus urticae, foliar, 144 h, application rate 500 g/ha, read-out: efficacy in %
[4] = acidic range, pH 2.7, 0.1% aqueous formic acid and acetonitrile, read-out: log P[a] / log P(HCOOH)
[5] = neutral range, pH 7.8, 0.001 molar aqueous ammonium hydrogencarbonate and acetonitrile, read-out: log P[b] / log P(neutral)

SMILES: CCn1c(=O)n(C)c(=O)n1-c1cc([S+]([O-])CC(F)(F)F)c(C)cc1F (centres unmarked) [Example 98]
efficacy in % ([1]; application rate 500 g/ha): 90%
logP (HCOOH) [2]: 1.93
logP (neutral) [2]: 1.91

SMILES: CCn1c(=O)n(C(C)(C)C)c(=O)n1-c1cc(SCC(F)(F)F)c(C)cc1F [Example 99]
efficacy in % ([1]; application rate 500 g/ha): 90%
logP (HCOOH) [2]: 4.21
logP (neutral) [2]: 4.16

chromatographic logP [2, 4]: 3.22
chromatographic logP [2, 5]: 1.73
SMILES: Cc1cc(F)c(N2C(=O)C(=O)N(CC(F)F)C2=O)cc1SCC(F)(F)F [Example 101, 1-(2,2-Difluoroethyl)-3-[2-fluoro-4-methyl-5-[(2,2,2-trifluoroethyl)sulfanyl]phenyl]imidazolidine-2,4,5-trione]
pest or weed control at 500 g/ha [1, 3]: 100%

chromatographic logP [2, 4]: 1.64
SMILES: Cc1cc(F)c(N2CCOC2=O)cc1[S+]([O-])CC(F)(F)F (centres unmarked) [Example 105, 3-[2-Fluoro-4-methyl-5-(2,2,2-trifluoroethylsulfinyl)phenyl]oxazolidin-2-one]
pest or weed control at 500 g/ha [1, 3]: 90%

chromatographic logP [2, 4]: 2.92
SMILES: Cc1cc(F)c(N2C(=O)OCC2C)cc1SCC(F)(F)F (centres unmarked) [Example 108, 3-[2-Fluoro-4-methyl-5-(2,2,2-trifluoroethylsulfanyl)phenyl]-4-methyloxazolidin-2-one]
pest or weed control at 500 g/ha [1, 3]: 90%

chromatographic logP [2, 4]: 1.93
chromatographic logP [2, 5]: 1.89
SMILES: Cc1cc(F)c(N2CC(C)OC2=O)cc1[S+]([O-])CC(F)(F)F (centres unmarked) [Example 109, 3-[2-Fluoro-4-methyl-5-(2,2,2-trifluoroethylsulfinyl)phenyl]-5-methyloxazolidin-2-one]
pest or weed control at 500 g/ha [1, 3]: 100%

chromatographic logP [2, 4]: 2.38
SMILES: Cc1cc(F)c(N2C(=O)OC(C)(C)C2=O)cc1[S+]([O-])CC(F)(F)F (centres unmarked) [Example 110, 3-[2-Fluoro-4-methyl-5-(2,2,2-trifluoroethylsulfinyl)phenyl]-5,5-dimethyloxazolidine-2,4-dione]
pest or weed control at 100 g/ha ([1]; Tetranychus urticae, foliar, 144 h, application rate 100 g/ha, read-out: efficacy in %): 100%

chromatographic logP [2, 4]: 3.35
SMILES: Cc1cc(F)c(N2C(=O)OC(C)(C)C2=O)cc1SCC(F)(F)F [Example 111, 3-[2-Fluoro-4-methyl-5-(2,2,2-trifluoroethylsulfanyl)phenyl]-5,5-dimethyloxazolidine-2,4-dione]
pest or weed control at 500 g/ha [1, 3]: 90%

SMILES: Cc1cc(C)c(N2C(=O)CSC2=NC2CC2)cc1SCC(F)(F)F [Example 112]
efficacy in % ([1]; application rate 100 g/ha): 100%
logP (HCOOH) [2]: 3.65
logP (neutral) [2]: 3.65

SMILES: Cc1cc(F)c(N2C(=O)CSC2=NCC(C)(C)C)cc1SCC(F)(F)F [Example 113]
efficacy in % ([1]; application rate 500 g/ha): 100%
logP (HCOOH) [2]: 4.84
logP (neutral) [2]: 4.73

chromatographic logP [2, 4]: 2.4
chromatographic logP [2, 5]: 2.39
SMILES: Cc1cc(F)c(-n2c(=O)n(C)n(C)c2=O)cc1SCC(F)(F)F [Example 116, 4-{2-Fluoro-4-methyl-5-[(2,2,2-trifluoroethyl)sulfanyl]phenyl}-1,2-dimethyl-1,2,4-triazolidine-3,5-dione]
pest or weed control at 500 g/ha [1, 3]: 100%

chromatographic logP [2, 4]: 1.54
chromatographic logP [2, 5]: 1.5
SMILES: Cc1cc(F)c(-n2c(=O)n(C)n(C)c2=O)cc1[S+]([O-])CC(F)(F)F (centres unmarked) [Example 117, 4-{2-Fluoro-4-methyl-5-[(2,2,2-trifluoroethyl)sulfinyl]phenyl}-1,2-dimethyl-1,2,4-triazolidine-3,5-dione]
pest or weed control at 500 g/ha [1, 3]: 90%

chromatographic logP [2, 4]: 3.03
SMILES: CCn1c(=O)n(-c2cc(SCC(F)(F)F)c(C)cc2F)c(=O)n1CC [Example 118, 1,2-Diethyl-4-{2-fluoro-4-methyl-5-[(2,2,2-trifluoroethyl)sulfanyl]phenyl}-1,2,4-triazolidine-3,5-dione]
pest or weed control at 500 g/ha [1, 3]: 100%

SMILES: C#CCn1c(=O)n(-c2cc(SCC(F)(F)F)c(C)cc2F)c(=O)n1C [Example 121]
efficacy in % ([1]; application rate 500 g/ha): 100%
logP (HCOOH) [2]: 2.81

chromatographic logP [2, 4]: 2.71
SMILES: CCn1c(=O)n(-c2cc(SCC(F)(F)F)c(C)cc2F)c(=O)n1C [Example 122, 1-Ethyl-4-{2-fluoro-4-methyl-5-[(2,2,2-trifluoroethyl)sulfanyl]phenyl}-2-methyl-1,2,4-triazolidine-3,5-dione]
pest or weed control at 500 g/ha [1, 3]: 90%

SMILES: C=CCn1c(=O)n(-c2cc(SCC(F)(F)F)c(C)cc2F)c(=O)n1C [Example 125]
efficacy in % ([1]; application rate 500 g/ha): 100%
logP (HCOOH) [2]: 2.91

SMILES: Cc1cc(F)c(-n2c(=O)n(C)n(CC3CC3)c2=O)cc1SCC(F)(F)F [Example 126]
efficacy in % ([1]; application rate 500 g/ha): 90%
logP (HCOOH) [2]: 3.15

SMILES: Cc1cc(F)c(-n2c(=O)n(C3CC3)c(=O)n2CC(F)(F)F)cc1SCC(F)(F)F [Example 129]
efficacy in % ([1]; application rate 500 g/ha): 100%
logP (HCOOH) [2]: 3.48
logP (neutral) [2]: 3.43

SMILES: C=CCn1c(=O)n(C2CC2)c(=O)n1-c1cc(SCC(F)(F)F)c(C)cc1F [Example 130]
efficacy in % ([1]; application rate 500 g/ha): 100%
logP (HCOOH) [2]: 3.31
logP (neutral) [2]: 3.28

SMILES: CCn1c(=O)n(C)n(-c2ccc(C)c(SCC(F)(F)F)c2)c1=O [Example 131]
efficacy in % ([1]; application rate 500 g/ha): 90%
logP (HCOOH) [2]: 3.00
logP (neutral) [2]: 2.97

SMILES: Cc1ccc(-n2c(=O)n(C(C)C)c(=O)n2C)cc1SCC(F)(F)F [Example 132]
efficacy in % ([1]; application rate 500 g/ha): 100%
logP (HCOOH) [2]: 3.42
logP (neutral) [2]: 3.38

SMILES: CCn1c(=O)n(C(C)C)c(=O)n1-c1ccc(C)c(SCC(F)(F)F)c1 [Example 133]
efficacy in % ([1]; application rate 500 g/ha): 100%
logP (HCOOH) [2]: 3.77
logP (neutral) [2]: 3.73

SMILES: CCn1c(=O)n(C(C)(C)C)c(=O)n1-c1ccc(C)c(SCC(F)(F)F)c1 [Example 134]
efficacy in % ([1]; application rate 500 g/ha): 100%
logP (HCOOH) [2]: 4.32
logP (neutral) [2]: 4.27

SMILES: Cc1ccc(-n2c(=O)n(C(C)(C)C)c(=O)n2C(C)C)cc1SCC(F)(F)F [Example 135]
efficacy in % ([1]; application rate 500 g/ha): 90%
logP (HCOOH) [2]: 4.77
logP (neutral) [2]: 4.70

SMILES: Cc1cc(F)c(-n2c(=O)n(C3CCCCC3)c(=O)n2C)cc1SCC(F)(F)F [Example 136]
efficacy in % ([1]; application rate 500 g/ha): 90%
logP (HCOOH) [2]: 4.17
logP (neutral) [2]: 4.13

SMILES: CCn1c(=O)n(C(C)(C)C)c(=O)n1-c1cc([S+]([O-])CC(F)(F)F)c(C)cc1F (centres unmarked) [Example 137]
efficacy in % ([1]; application rate 500 g/ha): 90%
logP (HCOOH) [2]: 3.02
logP (neutral) [2]: 2.96

SMILES: CCn1c(=O)n(CC)n(-c2ccc(C)c([S+]([O-])CC(F)(F)F)c2)c1=O (centres unmarked) [Example 138]
efficacy in % ([1]; application rate 500 g/ha): 90%
logP (HCOOH) [2]: 2.20
logP (neutral) [2]: 2.19

SMILES: Cc1ccc(-n2c(=O)n(C(C)(C)C)c(=O)n2C)cc1[S+]([O-])CC(F)(F)F (centres unmarked) [Example 139]
efficacy in % ([1]; application rate 500 g/ha): 100%
logP (HCOOH) [2]: 2.71
logP (neutral) [2]: 2.70

SMILES: CCn1c(=O)n(-c2ccc(C)c([S+]([O-])CC(F)(F)F)c2)n(C(C)C)c1=O (centres unmarked) [Example 140]
efficacy in % ([1]; application rate 500 g/ha): 90%
logP (HCOOH) [2]: 2.56
logP (neutral) [2]: 2.54

SMILES: CCn1c(=O)n(-c2cc(SCC(F)(F)F)c(C)cc2F)n(C(C)(C)C)c1=O [Example 142]
efficacy in % ([1]; application rate 500 g/ha): 100%
logP (HCOOH) [2]: 4.19
logP (neutral) [2]: 4.13

SMILES: Cc1cc(F)c(-n2c(=O)n(C(C)C)c(=O)n2C(C)(C)C)cc1SCC(F)(F)F [Example 143]
efficacy in % ([1]; application rate 500 g/ha): 100%
logP (neutral) [2]: 4.56

SMILES: CCn1c(=O)n(CC(F)(F)F)n(-c2cc(SCC(F)(F)F)c(C)cc2F)c1=O [Example 145]
efficacy in % ([1]; application rate 500 g/ha): 100%
logP (HCOOH) [2]: 3.54
logP (neutral) [2]: 3.49

SMILES: Cc1cc(F)c(-n2c(=O)n(C(C)(C)C)c(=O)n2CC(F)(F)F)cc1SCC(F)(F)F [Example 147]
efficacy in % ([1]; application rate 500 g/ha): 100%
logP (HCOOH) [2]: 4.34
logP (neutral) [2]: 4.28

SMILES: C=CCn1c(=O)n(CC(F)(F)F)n(-c2cc(SCC(F)(F)F)c(C)cc2F)c1=O [Example 154]
efficacy in % ([1]; application rate 500 g/ha): 100%
logP (HCOOH) [2]: 3.62
logP (neutral) [2]: 3.64

SMILES: Cc1cc(F)c(-n2c(=O)n(-c3ccccc3)c(=O)n2CC(F)(F)F)cc1SCC(F)(F)F [Example 155]
efficacy in % ([1]; application rate 500 g/ha): 90%
logP (HCOOH) [2]: 3.93
logP (neutral) [2]: 3.90

SMILES: Cc1cc(F)c(-n2c(=O)n(CC(F)F)c(=O)n2CC(F)(F)F)cc1SCC(F)(F)F [Example 156]
efficacy in % ([1]; application rate 500 g/ha): 90%
logP (HCOOH) [2]: 3.44
logP (neutral) [2]: 3.51

SMILES: COCCCn1c(=O)n(C)n(-c2cc(SCC(F)(F)F)c(C)cc2F)c1=O [Example 159]
efficacy in % ([1]; application rate 500 g/ha): 100%
logP (HCOOH) [2]: 2.96
logP (neutral) [2]: 2.95

SMILES: CCCn1c(=O)n(C)n(-c2cc(SCC(F)(F)F)c(C)cc2F)c1=O [Example 160]
efficacy in % ([1]; application rate 100 g/ha): 100%
logP (HCOOH) [2]: 3.28
logP (neutral) [2]: 3.22

SMILES: Cc1cc(F)c(-n2c(=O)n(CC3CC3)c(=O)n2C)cc1SCC(F)(F)F [Example 161]
efficacy in % ([1]; application rate 500 g/ha): 100%
logP (HCOOH) [2]: 3.39
logP (neutral) [2]: 3.34

SMILES: Cc1cc(F)c(-n2c(=O)n(-c3ccccc3)c(=O)n2C)cc1SCC(F)(F)F [Example 162]
efficacy in % ([1]; application rate 100 g/ha): 100%
logP (HCOOH) [2]: 3.42
logP (neutral) [2]: 3.27
